Earlier results in patent US20110201631A1, “PHARMACEUTICAL FORMULATIONS COMPRISING PEMETREXED” (DR. REDDY'S LABORATORIES LTD., priority 2008, published 2011).

Settings: U.S. Pat. No. 7,138,521

SMILES: Nc1nc2[nH]cc(CCc3ccc(C(=O)N[C@@H](CCC(=O)[O-])C(=O)[O-])cc3)c2c(=O)[nH]1.[Na+].[Na+] [heptahydrate, L-Glutamic acid, N-[4-[2-(2-amino-4,7-dihydro-4-oxo-1H-pyrrolo[2,3-c]pyrimidin-5-yl)ethyl]benzoyl]-, disodium salt, heptahydrate]
- Stability of crystal form relative to 2.5 hydrate: much more stable than the previously known 2.5 hydrate
